Values joined by “and” are separate entries in the source; they are usually repeats but may differ in a detail not shown here. Equal values may be shown once.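 Grown in 96-well plates, cells were treated for 48 hours with each compound at five concentrations. Insufficient inhibition: endpoint recorded as highest concentration tested. GI50 marks 50% less growth. TGI marks complete inhibition of growth.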
Tests used:
Assay in all cases: NCI-60 cell line screen, 48 h
CAKI-1 renal = tested on: CAKI-1 renal
HL-60(TB) leukemia = tested on: HL-60(TB) leukemia
HOP-62 NSCLC = tested on: HOP-62 NSCLC
KM12 colon = tested on: KM12 colon
MALME-3M melanoma = tested on: MALME-3M melanoma
NCI/ADR-RES ovarian = tested on: NCI/ADR-RES ovarian
SK-MEL-2 melanoma = tested on: SK-MEL-2 melanoma
SK-OV-3 ovarian = tested on: SK-OV-3 ovarian
SR leukemia = tested on: SR leukemia
UACC-257 melanoma = tested on: UACC-257 melanoma

Row | Compound | GI50 (CAKI-1 renal) | TGI (CAKI-1 renal) | GI50 (HL-60(TB) leukemia) | TGI (HL-60(TB) leukemia) | GI50 (HOP-62 NSCLC) | TGI (HOP-62 NSCLC) | GI50 (KM12 colon) | TGI (KM12 colon) | GI50 (MALME-3M melanoma) | TGI (MALME-3M melanoma) | GI50 (NCI/ADR-RES ovarian) | TGI (NCI/ADR-RES ovarian) | GI50 (SK-MEL-2 melanoma) | TGI (SK-MEL-2 melanoma) [µM] | GI50 (SK-OV-3 ovarian) | TGI (SK-OV-3 ovarian) | GI50 (SR leukemia) | TGI (SR leukemia) | GI50 (UACC-257 melanoma) | TGI (UACC-257 melanoma)
1 | CCN(CC)CCCC(C)N=c1cc(Nc2cc(=NC(C)CCCN(CC)CC)c3cc(OC)ccc3o2)oc2ccc(OC)cc12 (stereo not given) | 1.34 µM | 5.75 µM | 2.66 µM | 13.2 µM | 0.734 µM | 2.16 µM | 1.62 µM | 5.63 µM | 0.937 µM | 1.74 µM | 2.09 µM | 15.3 µM | 1.35 µM | 2.71 | 1.31 µM | 4.13 µM | 0.943 µM | 3.02 µM | 0.872 µM | 1.67 µM
2 | C=CN(C)S(C)(=O)=O | > 100 µM | > 100 µM | > 100 µM | > 100 µM | > 100 µM | > 100 µM | > 100 µM | > 100 µM | > 100 µM | > 100 µM | > 100 µM | > 100 µM | > 100 µM | > 100 | > 100 µM | > 100 µM | > 100 µM | > 100 µM | > 100 µM | > 100 µM
3 | Cc1cc(O)cc(C)c1/C=C/c1cncc(-c2nn[nH]n2)c1 | > 25 µM | > 25 µM | > 25 µM | > 25 µM | > 25 µM | > 25 µM | > 25 µM | > 25 µM | > 25 µM | > 25 µM | > 25 µM | > 25 µM | > 25 µM | > 25 | > 25 µM | > 25 µM | > 25 µM | > 25 µM | > 25 µM | > 25 µM
4 | N#CC1=C(N)NC(=S)NC12Nc1ccccc1N2 | 19.8 µM | > 100 µM | 20.8 µM | > 100 µM | 55.5 µM | > 100 µM | 23.6 µM | > 100 µM | 13.5 µM | 69.2 µM | 46.8 µM | > 100 µM | 18.6 µM | > 100 | 61 µM | > 100 µM | 6.18 µM | > 100 µM | > 100 µM | > 100 µM
5 | O=C(NO)c1ccc(Cn2c(=O)n(-c3ccccc3F)c(=O)c3ccccc32)cc1 | 2.25 µM | 7.15 µM | 3.48 µM | > 100 µM |  |  |  |  | 0.892 µM | 3.16 µM | 2.54 µM | 43 µM | 1.29 µM | 3.43 | 1.96 µM | 4.87 µM | 1.56 µM | > 100 µM | 1.25 µM | 3.22 µM
6 | Cc1ncsc1-c1ccc(CNC(=O)[C@@H]2C[C@@H](O)CN2C(=O)[C@@H](NC(=O)C2(C#N)CC2)C(C)(C)C)cc1 | 82 µM | > 100 µM | > 100 µM | > 100 µM | > 100 µM | > 100 µM | > 100 µM | > 100 µM | > 100 µM | > 100 µM | > 100 µM | > 100 µM | > 100 µM | > 100 | > 100 µM | > 100 µM | 55.4 µM | > 100 µM | > 100 µM | > 100 µM
7 | CC(=O)[C@@]1(O)[C@H](C)C[C@H]2[C@@H]3C=C(C)C4=Cc5c(cnn5-c5ccccc5)C[C@]4(C)[C@H]3[C@@H](O)C[C@@]21C | 2.46 µM | 6.44 µM | 3.62 µM | 41.9 µM | 3.58 µM | 9.75 µM | 1.69 µM | 4.5 µM | 1.76 µM | 5.36 µM | 1.91 µM | 9.75 µM | 2.45 µM | 5.88 | 0.76 µM | 10.5 µM | 1.77 µM |  | 4.06 µM | 13.4 µM
8 | CC(=O)Oc1cc2c(OC(C)=O)c(-c3c(C)cc4c(C(C)C)c(OC(C)=O)c(OC(C)=O)cc4c3OC(C)=O)c(C)cc2c(C(C)C)c1OC(C)=O | 7.61 µM and 6.16 µM and 11.5 µM | 21.9 µM and 13.1 µM and 30.9 µM | 13.1 µM and 3.07 µM and 4.8 µM | 33.2 µM and 9.99 µM and 16.2 µM | 6.67 µM and 5.17 µM and 8.71 µM | 18.8 µM and 11.7 µM and 24.1 µM | 4.83 µM and 5.02 µM and 9.12 µM | 10.6 µM and 10.2 µM and 21.3 µM | 5.49 µM and 5.36 µM and 9.03 µM | 13.8 µM and 13.7 µM and 23.7 µM | 7.87 µM and 8.95 µM and 20 µM | 33.1 µM and 32.7 µM and > 55.3 µM | 7.83 µM and 10.8 µM | 31.8 | 10.4 µM and 25.3 µM | > 39.3 µM and 34.1 µM and 55.8 µM | 28.3 µM and 6.93 µM | > 100 µM and 21.4 µM | 5.23 µM and 2.58 µM and 8.39 µM | 14.4 µM and 10.5 µM and 25.6 µM
9 | NC1=NCCN1CC(=O)O |  | > 10000 µM |  | > 1000 µM | > 10000 µM | > 10000 µM |  | > 10000 µM |  | > 1000 µM | > 10000 µM | > 10000 µM | > 10000 µM | > 10000 | > 10000 µM | > 10000 µM | > 10000 µM | > 10000 µM | > 10000 µM | > 10000 µM
10 | O=S(=O)(Nc1cc(Cl)ccc1Cl)c1ccc(-c2cnc(C3CC3)o2)cc1 | 0.647 µM | 52.1 µM | 0.468 µM | 16.4 µM | 1.64 µM | 27.5 µM | 0.704 µM | 24.4 µM | 10.8 µM | 57.6 µM | 1.22 µM | 82.6 µM | 11.1 µM | 68.8 | 5.3 µM | 85.5 µM | 0.551 µM | > 100 µM | 15 µM | 56.4 µM
11 | O=C(NCc1ccco1)c1ccc(NC2=C(Cl)C(=O)N(Cc3ccccc3)C2=O)cc1 | 1.84 µM | 3.39 µM | 17.4 µM | 33.8 µM | 16.5 µM | 31.7 µM | 17.2 µM | 36.2 µM |  |  | 18.3 µM | 39.5 µM | 23.8 µM | 55.8 | 53.2 µM | > 100 µM | 2.21 µM | 7.14 µM | 28.9 µM | 80.8 µM
12 | C=C(C)[C@@H]1CC[C@]2(CO)CC[C@]3(C)[C@H](CC[C@@H]4[C@@]5(C)CCC(NCCc6ccc(O)cc6)C(C)(C)[C@@H]5CC[C@]43C)[C@@H]12 (stereo not given in full) | 1.54 µM | 2.88 µM | 1.49 µM | 3.67 µM |  |  | 1.64 µM | 3.29 µM |  |  | 1.63 µM | 3.45 µM | 1.68 µM | 3.19 | 1.77 µM | 3.21 µM | 0.334 µM | 1.07 µM | 1.73 µM | 3.37 µM

Reference: PubChem BioAssay (NCI)
